Among the data in patent US20240270762A1, “PENICILLIN-BINDING PROTEIN INHIBITORS” (priority 2021, published 2024) are EC50 values, retold here.

pEC50: −log10 of the molar value. Bounds are passed on as bounds.

In the test the target is T1, PBP2 from Neisseria gonorrhoeae (FA19) (Neisseria gonorrhoeae, UniProt P08149).
T1 construct: made in house
The test is described as follows: Bocillin-FL fluorescence polarization competition binding, N. gonorrhoeae PBP2. As to conditions: fluorescence polarization competition binding assay using Bocillin-FL, read-out: N. gonorrhoeae PBP2 Potency. A digest of the protocol:
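Fluorescence polarization competition with 0.1 μM Bocillin-FL (fluorescent penicillin V) against 0.25 μM N. gonorrhoeae FA19 PBP2 in 50 mM Hepes pH 8.0, 300 mM NaCl, 10% glycerol. Boronic acid inhibitors were preincubated with PBP, then Bocillin-FL was added and FP read (490/520 nm) up to 60 min. EC50 is the concentration halving PBP-bound Bocillin-FL.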
A general note: Fluorescence polarisation rises when a labelled molecule tumbles more slowly, as on binding a larger partner.

T1 sequence (P08149 whole entry): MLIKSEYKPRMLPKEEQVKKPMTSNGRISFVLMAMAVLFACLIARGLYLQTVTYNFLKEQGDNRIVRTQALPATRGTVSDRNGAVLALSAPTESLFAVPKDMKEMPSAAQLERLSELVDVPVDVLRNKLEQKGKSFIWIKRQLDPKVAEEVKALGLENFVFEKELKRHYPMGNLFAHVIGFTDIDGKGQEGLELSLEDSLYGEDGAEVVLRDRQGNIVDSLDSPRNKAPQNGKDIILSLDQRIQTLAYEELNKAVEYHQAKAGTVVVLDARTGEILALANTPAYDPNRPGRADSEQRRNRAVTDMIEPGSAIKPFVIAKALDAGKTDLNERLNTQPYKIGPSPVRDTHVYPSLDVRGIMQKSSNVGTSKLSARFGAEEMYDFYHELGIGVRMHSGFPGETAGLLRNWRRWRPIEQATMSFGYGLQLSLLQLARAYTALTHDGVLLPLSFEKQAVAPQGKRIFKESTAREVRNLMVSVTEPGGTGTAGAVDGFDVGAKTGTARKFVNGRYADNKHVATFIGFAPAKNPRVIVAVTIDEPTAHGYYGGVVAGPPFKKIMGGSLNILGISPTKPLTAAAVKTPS

In the case of `CCN1CCN(C(=O)NC(C(=O)N[C@H]2Cc3cccc(C(=O)O)c3OB2O)c2ccc(P(=O)(O)O)c(F)c2O)C(=O)C1=O` (stereo partly drawn) [Example 198, (3R)-3-(2-(4-ethyl-2,3-dioxopiperazine-1-carboxamido)-2-(3-fluoro-2-hydroxy-4-phosphonophenyl)acetamido)-2-hydroxy-3,4-dihydro-2H-benzo[e][1,2]oxaborinine-8-carboxylic acid], the pEC50 is > 5.00.
